Laboratory results as given in BigSolDB 2.1.

`O=C(O)CCP(=O)([O-])c1ccccc1.[Na+]` showed a solubility (mole fraction) (in acetic acid, 293.15 K) of 0.0169, a solubility (mole fraction) (in acetic acid, 298.15 K) of 0.0205 and a solubility (mole fraction) (in acetic acid, 303.15 K) of 0.0225. For the same compound, the solubility (mole fraction) (in acetic acid, 308.15 K) was 0.0264, the solubility (mole fraction) (in acetic acid, 313.15 K) was 0.0283 and the solubility (mole fraction) (in acetic acid, 318.15 K) was 0.0312. It also gave a solubility (mole fraction) (in acetic acid, 323.15 K) of 0.0357, a solubility (mole fraction) (in acetic acid, 328.15 K) of 0.0404 and a solubility (mole fraction) (in acetic acid, 333.15 K) of 0.0471. The solubility (mole fraction) (in acetic acid, 343.15 K) was 0.062, the solubility (mole fraction) (in acetone, 293.15 K) was 7e-05 and the solubility (mole fraction) (in acetone, 298.15 K) was 0.00011. It also gave a solubility (mole fraction) (in acetone, 303.15 K) of 0.00016, a solubility (mole fraction) (in acetone, 308.15 K) of 0.00024 and a solubility (mole fraction) (in acetone, 313.15 K) of 0.00035. It also gave a solubility (mole fraction) (in acetone, 318.15 K) of 0.00051, a solubility (mole fraction) (in acetone, 323.15 K) of 0.00075 and a solubility (mole fraction) (in ethanol, 293.15 K) of 0.00065. It also gave a solubility (mole fraction) (in ethanol, 298.15 K) of 0.00076, a solubility (mole fraction) (in ethanol, 303.15 K) of 0.00095 and a solubility (mole fraction) (in ethanol, 308.15 K) of 0.00106. It also gave a solubility (mole fraction) (in ethanol, 313.15 K) of 0.00122, a solubility (mole fraction) (in ethanol, 318.15 K) of 0.00166 and a solubility (mole fraction) (in ethanol, 323.15 K) of 0.00199. It also gave a solubility (mole fraction) (in ethanol, 328.15 K) of 0.00223, a solubility (mole fraction) (in ethanol, 333.15 K) of 0.00273 and a solubility (mole fraction) (in ethanol, 343.15 K) of 0.00413. The solubility (mole fraction) (in ethyl acetate, 293.15 K) was 0.00039, the solubility (mole fraction) (in ethyl acetate, 298.15 K) was 0.00051 and the solubility (mole fraction) (in ethyl acetate, 303.15 K) was 0.000685. The solubility (mole fraction) (in ethyl acetate, 308.15 K) was 0.00096, the solubility (mole fraction) (in ethyl acetate, 313.15 K) was 0.00117 and the solubility (mole fraction) (in ethyl acetate, 318.15 K) was 0.00165. The solubility (mole fraction) (in ethyl acetate, 323.15 K) was 0.00204, the solubility (mole fraction) (in ethyl acetate, 328.15 K) was 0.00285 and the solubility (mole fraction) (in ethyl acetate, 333.15 K) was 0.00384. For the same compound, the solubility (mole fraction) (in ethyl acetate, 343.15 K) was 0.00602, the solubility (mole fraction) (in methanol, 293.15 K) was 0.00612 and the solubility (mole fraction) (in methanol, 298.15 K) was 0.00671. The solubility (mole fraction) (in methanol, 303.15 K) was 0.00719, the solubility (mole fraction) (in methanol, 308.15 K) was 0.00779 and the solubility (mole fraction) (in methanol, 313.15 K) was 0.00831. For the same compound, the solubility (mole fraction) (in methanol, 318.15 K) was 0.009, the solubility (mole fraction) (in methanol, 323.15 K) was 0.00993 and the solubility (mole fraction) (in water, 293.15 K) was 0.0196. The solubility (mole fraction) (in water, 298.15 K) was 0.0201, the solubility (mole fraction) (in water, 303.15 K) was 0.0214 and the solubility (mole fraction) (in water, 308.15 K) was 0.0222. For the same compound, the solubility (mole fraction) (in water, 313.15 K) was 0.0232, the solubility (mole fraction) (in water, 318.15 K) was 0.0248 and the solubility (mole fraction) (in water, 323.15 K) was 0.0263. The solubility (mole fraction) (in water, 328.15 K) was 0.0277, the solubility (mole fraction) (in water, 333.15 K) was 0.0295 and the solubility (mole fraction) (in water, 343.15 K) was 0.0316.

With `O=C([O-])CCP(=O)([O-])c1ccccc1.[Na+].[Na+]` the solubility (mole fraction) (in acetic acid, 293.15 K) was 0.000543, the solubility (mole fraction) (in acetic acid, 298.15 K) was 0.000554 and the solubility (mole fraction) (in acetic acid, 303.15 K) was 0.000569. It also gave a solubility (mole fraction) (in acetic acid, 308.15 K) of 0.000581, a solubility (mole fraction) (in acetic acid, 313.15 K) of 0.000603 and a solubility (mole fraction) (in acetic acid, 318.15 K) of 0.000626. For the same compound, the solubility (mole fraction) (in acetic acid, 323.15 K) was 0.000644, the solubility (mole fraction) (in acetic acid, 328.15 K) was 0.000663 and the solubility (mole fraction) (in acetic acid, 333.15 K) was 0.000703. The solubility (mole fraction) (in acetic acid, 343.15 K) was 0.000742, the solubility (mole fraction) (in acetone, 293.15 K) was 3.66e-05 and the solubility (mole fraction) (in acetone, 298.15 K) was 3.89e-05. It also gave a solubility (mole fraction) (in acetone, 303.15 K) of 4.13e-05, a solubility (mole fraction) (in acetone, 308.15 K) of 4.39e-05 and a solubility (mole fraction) (in acetone, 313.15 K) of 4.62e-05. It also gave a solubility (mole fraction) (in acetone, 318.15 K) of 4.83e-05, a solubility (mole fraction) (in acetone, 323.15 K) of 5.24e-05 and a solubility (mole fraction) (in ethanol, 293.15 K) of 7.03e-05. For the same compound, the solubility (mole fraction) (in ethanol, 298.15 K) was 9.7e-05, the solubility (mole fraction) (in ethanol, 303.15 K) was 0.000138 and the solubility (mole fraction) (in ethanol, 308.15 K) was 0.000197. It also gave a solubility (mole fraction) (in ethanol, 313.15 K) of 0.000264, a solubility (mole fraction) (in ethanol, 318.15 K) of 0.000352 and a solubility (mole fraction) (in ethanol, 323.15 K) of 0.000505. The solubility (mole fraction) (in ethanol, 328.15 K) was 0.000728, the solubility (mole fraction) (in ethanol, 333.15 K) was 0.000926 and the solubility (mole fraction) (in ethanol, 343.15 K) was 0.00164. It also gave a solubility (mole fraction) (in methanol, 293.15 K) of 2.2e-05, a solubility (mole fraction) (in methanol, 298.15 K) of 2.26e-05 and a solubility (mole fraction) (in methanol, 303.15 K) of 2.28e-05. It also gave a solubility (mole fraction) (in methanol, 308.15 K) of 2.3e-05, a solubility (mole fraction) (in methanol, 313.15 K) of 2.34e-05 and a solubility (mole fraction) (in methanol, 318.15 K) of 2.4e-05. The solubility (mole fraction) (in methanol, 323.15 K) was 2.44e-05, the solubility (mole fraction) (in water, 293.15 K) was 0.000904 and the solubility (mole fraction) (in water, 298.15 K) was 0.000906. For the same compound, the solubility (mole fraction) (in water, 303.15 K) was 0.000908, the solubility (mole fraction) (in water, 308.15 K) was 0.000909 and the solubility (mole fraction) (in water, 313.15 K) was 0.000911. It also gave a solubility (mole fraction) (in water, 318.15 K) of 0.000912, a solubility (mole fraction) (in water, 323.15 K) of 0.000913 and a solubility (mole fraction) (in water, 328.15 K) of 0.000915. The solubility (mole fraction) (in water, 333.15 K) was 0.000916 and the solubility (mole fraction) (in water, 343.15 K) was 0.000918.
